# In article PMC11658185, “Analysis of the quadruple lsu mutant reveals molecular determinants of the role of LSU proteins in sulfur assimilation in Arabidopsis” (The Plant Journal, 2024):
# Molecular target: T1, SiR (sulfite reductase; His-SiR) (Arabidopsis thaliana, UniProt Q9LZ66)
# T1 construct: N-terminal His tag, expressed in E. coli Rosetta (DE3), expected size 68 kDa; truncations printed up to residue 642
# T1 sequence (Q9LZ66 62-642): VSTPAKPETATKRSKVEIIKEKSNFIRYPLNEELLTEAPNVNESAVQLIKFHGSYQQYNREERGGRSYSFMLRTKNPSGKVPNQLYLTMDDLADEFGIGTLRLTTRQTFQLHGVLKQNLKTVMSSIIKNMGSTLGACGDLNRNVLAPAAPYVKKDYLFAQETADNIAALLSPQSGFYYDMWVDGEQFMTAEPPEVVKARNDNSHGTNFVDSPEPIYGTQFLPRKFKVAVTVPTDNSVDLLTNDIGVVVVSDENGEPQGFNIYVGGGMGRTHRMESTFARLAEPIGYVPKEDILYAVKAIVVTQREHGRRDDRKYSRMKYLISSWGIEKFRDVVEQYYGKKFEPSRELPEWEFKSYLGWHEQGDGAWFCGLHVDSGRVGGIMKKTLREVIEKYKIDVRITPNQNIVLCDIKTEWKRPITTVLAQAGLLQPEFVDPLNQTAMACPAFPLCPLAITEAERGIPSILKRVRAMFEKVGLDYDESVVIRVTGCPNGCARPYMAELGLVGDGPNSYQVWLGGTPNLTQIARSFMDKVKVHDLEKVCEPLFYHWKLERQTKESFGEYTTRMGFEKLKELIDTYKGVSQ
# Assay: coupled assay: sulfide trapped as cysteine by O-acetylserine(thiol)lyase, ninhydrin, OD […] nm; sulfite varied
# Format: biochemical
# Conditions: pH 7.5, 25 mM HEPES, RT, 1 h; methyl viologen reduced by dithionite as electron donor; O-acetylserine 5 mM; without LSU1
smiles,measurement,value
O=S(O)O [sulfite],"coupled assay: sulfide trapped as cysteine by O-acetylserine(thiol)lyase, ninhyd","Specific activities of the enzyme at various concentrations of: electron donor methyl‐viologen (a), substrate sulfite (b)"
